In patent US8729047B2, “Compositions for inhibiting redox-sensitive GTPases” (Board of Regents, The University of Texas System, priority 2010, dated 2014):
Read-outs that look alike come from different tables or passages of the source. Blank lines part the entries; values can stand above or below the compound they belong to.

Experiments:
Ras = Ras (Homo sapiens, UniProt P01112); conditions: determined previously (Lenzen et al.; Heo et al.); read-out: trueKD GDP; cited from earlier work
C20S RhoC = target: T1, C20S RhoC (Homo sapiens, UniProt P08134, C20S); assay: Titration of .NO2-treated RhoC-6-TGDP complex with [3H]GDP with/without DTT (FIG. 16D); assay type: binding; conditions: .NO2-treated 6-TGDP C20S RhoC complex, read-out: appKD for [3H]GDP
T1 construct: made in house; host or cells: E. coli
Experimental: (§1) FIG. 16. Kinetic properties of RhoC with 6-TGDP in the presence or absence of a redox agent. All kinetic analyses are described elsewhere herein. (A) ^appKD values of Rac1, RhoA, RhoC, and RhoC C20S for 6-TGDP were estimated to be 7.9, 11.6, 11.8, and 11.2 μM, respectively. ^trueKD values of Rac1, RhoA, and RhoC for 6-TGDP were then calculated to be 5.1, 10.8, 11.1, and 10.5 μM, respectively, by using a compensation equation, ^trueKD for 6-TGDP=^appKD for 6-TGDP/(1+[[^3H]GDP]/^trueKD for GDP) (Heo, J., and Hong, I. (2010) Biochemistry 49, 3965-3976), in conjunction with the values given. […] The GDP dissociation rates from RhoC C20S by NO, .NO2, and N2O3 were estimated to be 0.02×10^−3, 0.05×10^−3, and 0.04×10^−3 s^−1, respectively. […] (D) ^appKD values of RhoC for [^3H]GDP in the presence or absence of DTT were estimated to be 22.4 μM and […], respectively. ^appKD values of C20S RhoC for [^3H]GDP in the presence or absence of DTT were determined to be 24.8 μM and 25.2 μM, respectively. The regression values associated with these fits were >0.8595. […]
(d) The effect of .NO2 on the dissociation of 6-TGDP from RhoC was determined by treating the RhoC-6-TGDP complex titration with various concentrations of [^3H]GDP in the presence and absence of a reducing agent of either dithiothreitol (DTT) or β-mercaptoethanol. […]

RhoC C20S = RhoC C20S (Homo sapiens, UniProt P08134, C20S); assay: Competitive binding assay, [3H]GDP-loaded Rho protein titrated with 6-TGDP (FIG. 16A); set-up: made in house; host or cells: E. coli
Experimental: (§2) FIG. 16. Kinetic properties of RhoC with 6-TGDP in the presence or absence of a redox agent. All kinetic analyses are described elsewhere herein. (A) ^appKD values of Rac1, RhoA, RhoC, and RhoC C20S for 6-TGDP were estimated to be 7.9, 11.6, 11.8, and 11.2 μM, respectively. ^trueKD values of Rac1, RhoA, […] for 6-TGDP were then calculated to be 5.1, 10.8, 11.1, and 10.5 μM, respectively, by using a compensation equation, ^trueKD for 6-TGDP=^appKD for 6-TGDP/(1+[[^3H]GDP]/^trueKD for GDP) (Heo, J., and Hong, I. (2010) Biochemistry 49, 3965-3976), in conjunction with the values given. […] The GDP dissociation rates from RhoC C20S by NO, .NO2, and N2O3 were estimated to be 0.02×10^−3, 0.05×10^−3, and 0.04×10^−3 s^−1, respectively. […] (D) ^appKD values of RhoC for [^3H]GDP in the presence or absence of DTT were estimated to be 22.4 μM and […], respectively. ^appKD values of C20S RhoC for [^3H]GDP in the presence or absence of DTT were determined to be 24.8 μM and 25.2 μM, respectively. The regression values associated with these fits were >0.8595. All data points associated with vertical standard error bars shown in this figure are the mean values of triplicate measurements.
(§3) Transition metal-free assay buffer and vials as described in a previous study (Heo et al. Biochemistry 49, 3965-3976 (2010)) were used for all kinetic assays. The kinetic assay buffer contains the highest grade of 50 mM NaCl, 10 mM MgCl2, 1 mM EDTA, and 0.1 mM DTPA in 50 mM TrisHCl (pH 7.4). Before performance of any of the assays, all protein samples also were dialyzed with a metal-free buffer under anaerobic conditions. As with RhoA and Rac1 (Heo et al. J. Biol. Chem. 280, 31003-31010 (2005)), C20S RhoC were expressed in E. coli and purified using anionic and size exclusion columns.
(§4) (a) A competitive binding assay was performed to determine the binding affinity of Rho GTPase and 6-TGDP. The radiolabeled [^3H]GDP-loaded Rho protein (1 μM) was titrated with various concentrations of 6-TGDP. The titrated Rho protein sample then was spotted onto a nitrocellulose membrane. Each membrane was washed three times with the assay buffer, and radioactivity was determined using a Beckman-Coulter scintillation counter. The radioactivity of the sample (Rho protein-bound [^3H]GDP) was converted into, and thus plotted, as the fraction of mol GDP per mol total Rho protein. The apparent dissociation constant (^appKD) of the Rho protein with [^3H]GDP in the presence of 6-TGDP was determined by using Prism software to fit the titration curve to a hyperbola.

RhoC = RhoC (Homo sapiens, UniProt P08134); assay: as above; set-up: made in house; host or cells: E. coli
Experimental: as §2, §3, §4

RhoA = target: T2, RhoA (Homo sapiens, UniProt P61586); assay: as above
T2 construct: made in house; host or cells: E. coli
Experimental: as §1, with “respectively.” for “respectively. The regression values associated with these fits were >0.8595.”
(a) A competitive binding assay was performed to determine the binding affinity of Rho GTPase and 6-TGDP. […] Each membrane was washed three times with the assay buffer, and radioactivity was determined using a Beckman-Coulter scintillation counter. The radioactivity of the sample (Rho protein-bound [^3H]GDP) was converted into, and thus plotted, as the fraction of mol GDP per mol total Rho protein. […]

HME-RhoC cells [1] = assay: MTT cell viability and caspase-3/8 assays; assay type: cell-based, human
Excerpt: FIG. 25. […] (B) Caspase-3/8 assay: the apoptotic activity of sample cells treated with the apoptotic inducer was set to be 100%, and other results were then expressed as normalized values against the mean value associated with the treatment with the apoptotic inducer. For both (A) and (B), all values represent the mean values and standard error values from triplicate measurements.

HME-RhoC cells [2] = assay: Apoptosis / cell population of cells treated with thiopurines; assay type: cell-based, human; conditions: for cells that underwent apoptosis within a day: thiopurine 1 μM
Excerpt: RhoC-overexpressed mammary epithelium (HME-RhoC) cells were used to examine the effect of 6-TG and/or a redox agent on RhoC.

ERM = ERM phosphorylation in activated T cells; assay type: cell-based
Experimental: FIG. 26. Determination of Rac1 activity and ERM phosphorylation. […] (A) The soluble cell extract was then used to perform Western blot analyses for Rac1 and the ERM. This cell extract also was used for the co-IP-based ESI-MS analysis (FIG. 8). (B) A Rac1 activity assay was colorimetrically determined using cell extract; the assay was performed with the Rac1 G-LISA Activation Assay Kit (Cat. No. BK125) (Denver, Colo.). To examine the level of phosphorylation of the ERM, cells were cultured in complete RPMI 1640 medium with ˜50 μCi of ^32P/mL before initiating stimulation of T cells. The collected cell extract was nutated with resin coupled with a human ERM (231C2a) antibody (Santa Cruz Biotechnology, CA) at 4° C. for 5 h. […] The immunoprecipitates were then analyzed by SDS-PAGE and autoradiographed. […] The data represented in the figure represent the mean values of triplicate measurements, and the vertical error bar indicates standard errors.

[3] = determined within this study, read-out: trueKD for GDP
[4] = [3H]GDP-loaded Rho protein 1 μM titrated with 6-TGDP, FIG. 16A, read-out: appKD for 6-TGDP

Chain of RhoC (P08134 whole entry): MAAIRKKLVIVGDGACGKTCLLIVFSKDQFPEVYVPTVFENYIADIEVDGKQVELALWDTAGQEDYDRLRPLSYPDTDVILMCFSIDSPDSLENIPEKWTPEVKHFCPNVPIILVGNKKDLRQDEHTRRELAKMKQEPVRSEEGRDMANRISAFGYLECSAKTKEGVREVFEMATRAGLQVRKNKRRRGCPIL
Chain of RhoC C20S (P08134 whole entry C20S): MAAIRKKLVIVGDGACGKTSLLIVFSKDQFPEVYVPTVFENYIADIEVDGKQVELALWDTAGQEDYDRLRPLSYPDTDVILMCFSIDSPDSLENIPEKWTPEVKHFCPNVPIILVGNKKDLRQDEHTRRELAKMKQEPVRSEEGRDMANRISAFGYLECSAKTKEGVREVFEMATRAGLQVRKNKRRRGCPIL
T2 sequence (P61586 whole entry, species assumed): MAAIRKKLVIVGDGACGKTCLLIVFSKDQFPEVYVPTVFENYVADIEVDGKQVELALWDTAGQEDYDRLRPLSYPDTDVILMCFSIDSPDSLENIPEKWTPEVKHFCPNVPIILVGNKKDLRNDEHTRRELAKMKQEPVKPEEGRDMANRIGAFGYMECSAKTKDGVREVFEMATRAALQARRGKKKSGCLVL
T1 sequence (P08134 whole entry C20S): as the sequence (P08134 whole entry C20S) above
Chain of Ras (P01112 whole entry): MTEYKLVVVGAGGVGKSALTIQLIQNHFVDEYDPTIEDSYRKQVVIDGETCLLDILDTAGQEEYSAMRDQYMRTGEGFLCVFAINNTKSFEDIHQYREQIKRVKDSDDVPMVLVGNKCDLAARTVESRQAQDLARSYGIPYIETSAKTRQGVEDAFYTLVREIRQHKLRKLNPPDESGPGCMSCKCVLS

Structure (SMILES): Nc1nc2c(ncn2[C@@H]2O[C@H](COP(=O)(O)OP(=O)(O)O)[C@@H](O)[C@H]2O)c(=O)[nH]1 [GDP]
- Kd (Ras): 9 pM
- Kd (C20S RhoC; absence of DTT): 25.2 µM
- Kd (C20S RhoC; presence of DTT): 24.8 µM
- Kd (RhoC C20S; [3]): 14.2 ± 8 µM
- Kd (RhoC; [3]): 15 ± 8 µM

- Kd (RhoA; [3H]GDP-loaded Rho protein 1 μM titrated with 6-TGDP, read-out: appKD for 6-TGDP): 11.6 µM
- Kd (RhoA; calculated by compensation equation, read-out: trueKD for 6-TGDP): 10.8 µM
- Kd (RhoC C20S; [4]): 11.2 µM
- Kd (RhoC C20S; calculated by compensation equation, FIG. 16A, fourth value of the list, read-out: trueKD for 6-TGDP): 10.5 µM
- Kd (RhoC; [4]): 11.8 µM
- Kd (RhoC; calculated by compensation equation, FIG. 16A, read-out: trueKD for 6-TGDP): 11.1 µM
Structure (SMILES): Nc1nc2c(ncn2[C@@H]2O[C@H](COP(=O)(O)OP(=O)(O)O)[C@@H](O)[C@H]2O)c(=S)[nH]1 [6-TGDP, 6-thioguanosine diphosphate]

Structure (SMILES): Nc1nc2nc[nH]c2c(=S)[nH]1 [6-TG, 6-thioguanine]
- apoptotic effect (caspase, FIG. 25B) (HME-RhoC cells [1]; 6-TG): minimal
- viability and caspase activity (HME-RhoC cells [1]; 6-TG and DETA/NO, FIG. 25): minimally affected
- cell viability (MTT, FIG. 25A) (HME-RhoC cells [1]; 6-TG for 3 days): minimally affected
- cells persistently resisting additional treatments (of the initial cells) (HME-RhoC cells [2]; 6-TG 1 μM): 20%-25%
- cells that underwent apoptosis within a day (HME-RhoC cells [2]): ~80%
- blockage of ERM dephosphorylation (ERM; 6-TG plus DETA/NO 10 μM): increases the blockage of the dephosphorylated form of ERM
- ERM phosphorylation (ERM; 6-TG, after three days, FIG. 26B): large portion of ERM in T cells was observed to have been phosphorylated

Structure (SMILES): Nc1nc2[nH]c(S)nc2c(=O)[nH]1 [8-TG, 2-amino-8-mercapto-1H-purin-6(9H)-one]
- viability of cells treated with 8-TG-redox agent (HME-RhoC cells [1]; 8-TG for a week followed by NO donor): almost the same as that of the untreated HME-RhoC cells
- delayed minor apoptosis over the course of a week of treatment (HME-RhoC cells [2]; 8-TG 1 μM): ~5%
- cells that underwent apoptosis within a day (HME-RhoC cells [2]): less than 5%
- screen of 6-TP isomers on ERM dephosphorylation (ERM; not shown): blocks the dephosphorylation of ERM
